Measurements: US11072585B2 (PharmAkea, Inc., priority 2015, dated 2021)
Structures can show the parent of a compound that is named as a salt.

Assays:
[1] = biological target: human LOXL2 (Homo sapiens (Human), UniProt Q9Y4K0); experiment: Human LOXL2 amine oxidase activity assay (Amplex Red); type: biochemical; conditions: concentrated conditioned media from CHO cells stably expressing human LOXL2; 2 h at 37° C. with compound; DAP substrate
Method in brief: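 Concentrated conditioned medium from CHO cells stably expressing human LOXL2 was preincubated with compound for 2 h at 37 °C in 50 mM borate, pH 8. 1,5-diaminopentane substrate and Amplex Red/HRP were then added. Fluorescence (544/590) was read kinetically every 2 min for 1 h, with activity taken from the linear slope.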

[2] = system: bleomycin-induced lung fibrosis in C57Bl/6 male mice; experiment: Mouse oropharyngeal bleomycin model of lung fibrosis; type: in vivo; conditions: for efficacy in bleomycin lung fibrosis model, prophylactic dosing: dosed prophylactically at 60 mg/kg p.o.; for efficacy in bleomycin lung fibrosis model, therapeutic dosing: dosed therapeutically at 60 mg/kg p.o.
Procedure: Example B-3: Mouse Oropharyngeal Bleomycin Model of Lung Fibrosis
Lung fibrosis is induced in C57Bl/6 male mice by administering bleomycin (0.1-4 U/kg) via oropharyngeal instillation. Mice are either pretreated with vehicle or test compound (1 day to 1 hour) orally, intraperitoneally, intravenously or subcutaneously before bleomycin installation (prophylactic dosing) or 7-14 days post bleomycin instillation (therapeutic dosing). The route and frequency of dosing are based on previously determined pharmacokinetic properties for the LOXL2 inhibitor in mouse. After bleomycin instillation animals are monitored daily for weight loss and clinical signs for 14-28 days prior to sacrifice. Animals are euthanized at study termination and weighed and blood (for isolation of plasma) and bronchoalveolar lavage are collected and frozen for subsequent analyses. Lungs are removed, weighed, then either inflated and fixed by instillation of 10% formalin and prepared for histological examination or homogenized in 1 ml PBS for collagen determination using a hydroxyproline assay. For histological examination, lung slices are stained with Masson's trichrome or Picro-Sirius red to measure cross-linked collagen as an indicator of fibrosis and an Ashcroft score of lung fibrotic and inflammatory damage determined. In addition, immunohistochemistry of fibrotic proteins such as a-smooth muscle actin can be recorded. For lung hydroxyproline content, 0.5 ml of the lung homogenate is removed and added to 0.5 ml 12 N HCl and the samples heated at 120° C. overnight. After the acid hydrolysis, 25-100 μl of the supernatant is dried down, resuspended in 25 μl water and the hydroxyproline content determined by the addition of 0.5 ml Chloramine T solution (140 mg Chloramine T in 6.5 ml ddH2O+1 ml n-propanol+2.5 ml 1M sodium acetate) and incubation at room temperature for 20 min. After the incubation, 0.5 ml Erlich's solution (1.48 g of 4-(dimethylamino(benzaldehyde) in 7 ml n-propanol+2.88 ml 60% perchloric acid and 0.12 ml ddH2O) is added and incubated at 65° C. for 15 min before reading the absorbance at 550 nm. The concentration of hydroxyproline in each […] is determined from a hydroxyproline (purchased from Sigma) standard curve.

[3] = system: kidney fibrosis in Col4A3 deficient mice; experiment: Mouse Alport model of kidney fibrosis; type: in vivo; conditions: dosed prophylactically at 30 mg/kg p.o.
Procedure: Example B-7: Mouse Alport Model of Kidney Fibrosis
Mice with mutations in one of the genes of glomerular basement membrane collagen, Collagen IV-a3/a4/a5, have defects in glomerular function with development of kidney fibrosis These mice develop renal dysfunction and die prematurely of renal failure with specific timing dependent on the strain background upon which the mutation is present. LOXL2 inhibitors are administered orally to Col4A3 deficient mice on a SV129 background either prophylactically (ca. weeks 2-3 of age) or therapeutically (ca. weeks 4-6 wks of age). Mice are either sacrificed at a predefined time (7-9 wks of age) or continually dosed until they lose >15% of their body weight which preceeds death by 1-3 days. If specifically terminated, mice are perfused transcardially with PBS, and one kidney clamped at the renal artery and the other perfused with Dynabeads for magnetic isolation of glomeruli. […] RNA from glomeruli and renal cortex is analyzed by real time RT-PCR for genes of interest including MMP-10, MMP-12, IL6, MCP-1, TGF-b1, CTGF, MMP-2, and MMP-9. […] Collagen 1 staining is blindly analyzed for fibrosis scoring, and fibronectin staining is blindly analyzed for glomerulosclerosis scoring. For all studies albuminuria is assessed weekly and BUN at the time of tissue harvest.

Chain of human LOXL2 (Q9Y4K0 26-774): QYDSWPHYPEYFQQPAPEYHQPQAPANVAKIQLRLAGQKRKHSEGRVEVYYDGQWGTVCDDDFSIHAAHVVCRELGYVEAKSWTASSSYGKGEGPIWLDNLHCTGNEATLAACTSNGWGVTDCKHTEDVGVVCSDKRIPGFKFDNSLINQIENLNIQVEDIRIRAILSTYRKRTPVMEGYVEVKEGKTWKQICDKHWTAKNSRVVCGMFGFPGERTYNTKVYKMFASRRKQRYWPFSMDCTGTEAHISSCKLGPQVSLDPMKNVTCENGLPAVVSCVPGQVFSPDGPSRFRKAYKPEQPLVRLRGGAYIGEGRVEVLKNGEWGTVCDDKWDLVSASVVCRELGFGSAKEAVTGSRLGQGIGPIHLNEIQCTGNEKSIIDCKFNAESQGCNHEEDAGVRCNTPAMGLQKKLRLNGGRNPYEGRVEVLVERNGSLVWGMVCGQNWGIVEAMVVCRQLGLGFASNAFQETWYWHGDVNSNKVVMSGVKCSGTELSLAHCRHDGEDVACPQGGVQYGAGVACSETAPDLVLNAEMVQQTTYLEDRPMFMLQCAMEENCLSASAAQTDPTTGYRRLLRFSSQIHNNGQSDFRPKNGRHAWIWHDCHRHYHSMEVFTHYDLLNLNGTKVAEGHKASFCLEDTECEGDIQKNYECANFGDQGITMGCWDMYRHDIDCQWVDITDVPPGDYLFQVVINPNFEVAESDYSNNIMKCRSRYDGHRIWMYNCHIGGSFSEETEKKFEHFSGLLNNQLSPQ

## CS(=O)(=O)CCNC(=O)c1cccc(Oc2cc(CN)cc(C(F)(F)F)n2)c1.Cl [Compound 1-30, 3-((4-(Aminomethyl)-6-(trifluoromethyl)pyridin-2-yl)oxy)-N-(2-(methylsulfonyl)ethyl)benzamide hydrochloride]
[1]
  IC50: < 300 nM
[2]
  efficacy in bleomycin lung fibrosis model, prophylactic dosing: efficacious

## Cl.NCc1cc(Oc2cccc(C(=O)Nc3ccccc3)c2)nc(C(F)(F)F)c1 [Compound 1-7, 3-((4-(Aminomethyl)-6-(trifluoromethyl)pyridin-2-yl)oxy)-N-phenylbenzamide hydrochloride]
[1]
  IC50: < 300 nM
[2]
  efficacy in bleomycin lung fibrosis model, prophylactic dosing: efficacious

## Cl.NCc1cc(Oc2cccc(C(=O)N3C[C@@H](O)[C@H](F)C3)c2)nc(C(F)(F)F)c1 (stereo in doubt) [Compound 1-19, Racemic-trans-(3-((4-(aminomethyl)-6-(trifluoromethyl)pyridin-2-yl)oxy)phenyl)(3-fluoro-4-hydroxypyrrolidin-1-yl)methanone hydrochloride]
[1]
  IC50: < 300 nM
[2]
  efficacy in bleomycin lung fibrosis model, prophylactic dosing: efficacious
  efficacy in bleomycin lung fibrosis model, therapeutic dosing: efficacious

## Cl.NCc1cc(Oc2cccc(C(=O)N3C[C@@H](O)[C@H](F)C3)c2)nc(C(F)(F)F)c1 (stereo in doubt) [Compound 1-21, (R,R)-trans-(3-((4-(Aminomethyl)-6-(trifluoromethyl)pyridin-2-yl)oxy)phenyl)(3-fluoro-4-hydroxypyrrolidin-1-yl)methanone hydrochloride]
[3]
  efficacy in Alport kidney fibrosis model, prophylactic dosing: efficacious
[1]
  IC50: < 300 nM
[2]
  efficacy in bleomycin lung fibrosis model, prophylactic dosing: efficacious
  efficacy in bleomycin lung fibrosis model, therapeutic dosing: efficacious

## Cl.NCc1cc(Oc2cccc(C(=O)NCCn3cnnn3)c2)nc(C(F)(F)F)c1 [Compound 1-15, N-(2-(1H-Tetrazol-1-yl)ethyl)-3-((4-(aminomethyl)-6-(trifluoromethyl)pyridin-2-yl)oxy)benzamide hydrochloride]
[1]
  IC50: < 300 nM
[2]
  efficacy in bleomycin lung fibrosis model, prophylactic dosing: efficacious

## Cl.NCc1cc(Oc2cccc(C(=O)N3C[C@H](O)[C@@H](F)C3)c2)nc(C(F)(F)F)c1 (stereo in doubt) [Compound 1-20, (S,S)-trans-(3-((4-(Aminomethyl)-6-(trifluoromethyl)pyridin-2-yl)oxy)phenyl)(3-fluoro-4-hydroxypyrrolidin-1-yl)methanone hydrochloride]
[1]
  IC50: < 300 nM
[2]
  efficacy in bleomycin lung fibrosis model, prophylactic dosing: efficacious
  efficacy in bleomycin lung fibrosis model, therapeutic dosing: efficacious

## Cl.NCc1cc(Oc2cccc3c2CCC(=O)N3)nc(C(F)(F)F)c1 [Compound 1-59, 5-((4-(Aminomethyl)-6-(trifluoromethyl)pyridin-2-yl)oxy)-3,4-dihydroquinolin-2(1H)-one hydrochloride]
[1]
  IC50: < 300 nM
[2]
  efficacy in bleomycin lung fibrosis model, prophylactic dosing: efficacious

## NCc1cc(Oc2cccc(C(=O)NCC3CCC(=O)N3)c2)nc(C(F)(F)F)c1 (racemic) [Compound 1-29, Racemic-3-((4-(aminomethyl)-6-(trifluoromethyl)pyridin-2-yl)oxy)-N-((5-oxopyrrolidin-2-yl)methyl)benzamide hydrochloride]
[1]
  IC50: < 300 nM

## NCc1cc(Oc2cccc(C(=O)N3CC[C@@H](O)C3)c2)nc(C(F)(F)F)c1 [Compound 1-18, (R)-(3-((4-(Aminomethyl)-6-(trifluoromethyl)pyridin-2-yl)oxy)phenyl)(3-hydroxypyrrolidin-1-yl)methanone hydrochloride]
[1]
  IC50: < 300 nM
